Test results as given in PubChem BioAssay AID1963448 (Molecular Pharmacology Branch, DTP, NCI, 2024).
Where “and” joins values, the source holds several entries; their conditions need not be identical. Equal values may be shown once.

Test system: 616215-338-R-J1-PDC complex spheroid growth, % test/control
Experiment: Anticancer human tumor 616215-338-R-J1-PDC patient-derived colon adenocarcinoma cell line growth inhibition [Asc]
Details: for viability, T/C: stronger effect = lower value
Method in brief: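 Complex spheroids combining tumor cells with HUVEC endothelial cells and human MSCs, at 37 degrees C, 5% CO2; agents tested alone or combined, half-log dilutions from at or near clinical Cmax, or 10 microM if Cmax unknown.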

[1] = curve of first compound, second compound 0.03 µM
[2] = curve of first compound, second compound 0.0949 µM
[3] = curve of first compound, second compound 0.3 µM
[4] = curve of first compound, second compound 0.949 µM
[5] = curve of first compound, second compound 3 µM
[6] = second compound 0.03 µM, first compound 0.0316 µM
[7] = second compound 0.03 µM, first compound 0.1 µM
[8] = second compound 0.03 µM, first compound 0.316 µM
[9] = second compound 0.03 µM, first compound 1 µM
[10] = second compound 0.03 µM, first compound 3.16 µM
[11] = second compound 0.03 µM, first compound 10 µM
[12] = second compound 0.0949 µM, first compound 0.0316 µM
[13] = second compound 0.0949 µM, first compound 0.1 µM
[14] = second compound 0.0949 µM, first compound 0.316 µM
[15] = second compound 0.0949 µM, first compound 1 µM
[16] = second compound 0.0949 µM, first compound 3.16 µM
[17] = second compound 0.0949 µM, first compound 10 µM
[18] = second compound 0.3 µM, first compound 0.0316 µM
[19] = second compound 0.3 µM, first compound 0.1 µM
[20] = second compound 0.3 µM, first compound 0.316 µM
[21] = second compound 0.3 µM, first compound 1 µM
[22] = second compound 0.3 µM, first compound 3.16 µM
[23] = second compound 0.3 µM, first compound 10 µM
[24] = second compound 0.949 µM, first compound 0.0316 µM
[25] = second compound 0.949 µM, first compound 0.1 µM
[26] = second compound 0.949 µM, first compound 0.316 µM
[27] = second compound 0.949 µM, first compound 1 µM
[28] = second compound 0.949 µM, first compound 3.16 µM
[29] = second compound 0.949 µM, first compound 10 µM
[30] = second compound 3 µM, first compound 0.0316 µM
[31] = second compound 3 µM, first compound 0.1 µM
[32] = second compound 3 µM, first compound 0.316 µM
[33] = second compound 3 µM, first compound 1 µM
[34] = second compound 3 µM, first compound 3.16 µM
[35] = second compound 3 µM, first compound 10 µM
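Also: spheroids exposed to agents for seven days before readout.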
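For viability, T/C in this document: 100% = DMSO vehicle control viability.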

Structure (SMILES): C=C(F)C(=O)N1CCN(c2nc(OCC3CCCN3C)nc3c2CCN(c2cccc4cccc(Cl)c24)C3)CC1CC#N (centres undefined) + CCN1C(C(=O)NC23CCC(C(=O)O)(CC2)CC3)C(c2cccc(Cl)c2F)C2(C(=O)Nc3cc(Cl)ccc32)C12CCCCC2
- IC50 [1]: 5680 nM
- IC50 [2]: 4920 nM
- IC50 [3]: 3720 nM
- IC50 [4]: 3830 nM
- IC50 [5]: < 31.6 nM
- viability, T/C [6]: 106%
- viability, T/C [7]: 103%
- viability, T/C [8]: 109%
- viability, T/C [9]: 106%
- viability, T/C [10]: 101%
- viability, T/C [11]: 0.87%
- viability, T/C [12]: 106%
- viability, T/C [13]: 96.7%
- viability, T/C [14]: 99.3%
- viability, T/C [15]: 93.4%
- viability, T/C [16]: 82%
- viability, T/C [17]: 0.4%
- viability, T/C [18]: 69.9%
- viability, T/C [19]: 67.9%
- viability, T/C [20]: 66%
- viability, T/C [21]: 65.7%
- viability, T/C [22]: 58.2%
- viability, T/C [23]: 0.52%
- viability, T/C [24]: 62.2%
- viability, T/C [25]: 65.5%
- viability, T/C [26]: 67.6%
- viability, T/C [27]: 63.8%
- viability, T/C [28]: 59.9%
- viability, T/C [29]: 0.26%
- viability, T/C [30]: 48.9%
- viability, T/C [31]: 48.8%
- viability, T/C [32]: 46.2%
- viability, T/C [33]: 45.6%
- viability, T/C [34]: 46.2%
- viability, T/C [35]: 0.36%

Structure (SMILES): Cn1ncnc1[C@H]1c2n[nH]c(=O)c3cc(F)cc(c23)N[C@@H]1c1ccc(F)cc1
- viability, T/C (compound 0.000316 µM): 93.4% and 104% and 99.2%
- viability, T/C (compound 0.001 µM): 96.2% and 100% and 92.5%
- viability, T/C (compound 0.00316 µM): 97.1% and 98.9% and 93.8%
- viability, T/C (compound 0.01 µM): 99% and 106% and 100%
- viability, T/C (compound 0.0316 µM): 95.7% and 100% and 102%
- viability, T/C (compound 0.1 µM): 108% (2×) and 100%
- IC50 (curve of compound): > 100 nM

Structure (SMILES): C=CC(=O)N1CCN(c2nc(=O)n(-c3c(C)ccnc3C(C)C)c3nc(-c4c(O)cccc4F)c(F)cc23)C(C)C1 (centres undefined) + CCN1C(C(=O)NC23CCC(C(=O)O)(CC2)CC3)C(c2cccc(Cl)c2F)C2(C(=O)Nc3cc(Cl)ccc32)C12CCCCC2
- IC50 [1]: > 10000 nM
- IC50 [2]: > 10000 nM
- IC50 [3]: > 10000 nM
- IC50 [4]: > 10000 nM
- IC50 [5]: 84.2 nM
- viability, T/C [6]: 100%
- viability, T/C [7]: 96.3%
- viability, T/C [8]: 102%
- viability, T/C [9]: 102%
- viability, T/C [10]: 98.2%
- viability, T/C [11]: 101%
- viability, T/C [12]: 89.3%
- viability, T/C [13]: 93.7%
- viability, T/C [14]: 89.1%
- viability, T/C [15]: 88.8%
- viability, T/C [16]: 92.9%
- viability, T/C [17]: 85.5%
- viability, T/C [18]: 68.5%
- viability, T/C [19]: 64.5%
- viability, T/C [20]: 66.8%
- viability, T/C [21]: 69.2%
- viability, T/C [22]: 67.3%
- viability, T/C [23]: 68.7%
- viability, T/C [24]: 61.7%
- viability, T/C [25]: 65%
- viability, T/C [26]: 65.5%
- viability, T/C [27]: 58.1%
- viability, T/C [28]: 60%
- viability, T/C [29]: 57.2%
- viability, T/C [30]: 48.2%
- viability, T/C [31]: 49.8%
- viability, T/C [32]: 52.5%
- viability, T/C [33]: 50.3%
- viability, T/C [34]: 48.9%
- viability, T/C [35]: 45.6%

Structure (SMILES): C#Cc1c(F)ccc2cc(O)cc(-c3ncc4c(N5CC6CCC(C5)N6)nc(OCC56CCCN5CC(F)C6)nc4c3F)c12 (centres undefined)
- viability, T/C (compound 0.0316 µM): 105% and 96.2% and 99%
- viability, T/C (compound 0.1 µM): 96% and 104% and 102%
- viability, T/C (compound 0.316 µM): 104% (2×) and 94.8%
- viability, T/C (compound 1 µM): 106% and 113% and 101%
- viability, T/C (compound 3.16 µM): 49.3% and 108% and 101%
- IC50 (curve of compound): 3120 nM and > 10000 nM

Structure (SMILES): O=C(c1ccc(F)c(F)c1Nc1ccc(I)cc1F)N1CC(O)([C@@H]2CCCCN2)C1
- viability, T/C (compound 0.00316 µM): 89.5% and 99.8% and 108%
- viability, T/C (compound 0.01 µM): 84.3% and 101% and 100%
- viability, T/C (compound 0.0316 µM): 74.5% and 93.8% and 67.1%
- viability, T/C (compound 0.1 µM): 54.4% and 51.2% and 15.8%
- viability, T/C (compound 0.316 µM): 22.1% and 19.3% and 4.03%
- viability, T/C (compound 1 µM): 1.33% and 0.76% and 3.69%
- IC50 (curve of compound): 113 nM and 114 nM and 46.2 nM

Structure (SMILES): CCN1CCN(Cc2ccc(Nc3ncc(F)c(-c4cc(F)c5nc(C)n(C(C)C)c5c4)n3)nc2)CC1 + CNC(C)C(=O)NC1CN(S(=O)(=O)c2cccc(S(=O)(=O)N3CCC4CCC(C(=O)NC(c5ccccc5)c5ccccc5)N4C(=O)C(NC(=O)C(C)NC)C3)c2)CCC2CCC(C(=O)NC(c3ccccc3)c3ccccc3)N2C1=O
- IC50 (curve of first compound, second compound 0.00316 µM): 261 nM
- IC50 (curve of first compound, second compound 0.01 µM): 298 nM
- IC50 (curve of first compound, second compound 0.0316 µM): 586 nM
- IC50 (curve of first compound, second compound 0.1 µM): 441 nM
- IC50 (curve of first compound, second compound 0.316 µM): 386 nM
- IC50 (curve of first compound, second compound 1 µM): 555 nM
- viability, T/C (second compound 0.00316 µM, first compound 0.00316 µM): 105%
- viability, T/C (second compound 0.00316 µM, first compound 0.01 µM): 105%
- viability, T/C (second compound 0.00316 µM, first compound 0.0316 µM): 92.1%
- viability, T/C (second compound 0.00316 µM, first compound 0.1 µM): 92.4%
- viability, T/C (second compound 0.00316 µM, first compound 0.316 µM): 41.5%
- viability, T/C (second compound 0.00316 µM, first compound 1 µM): 16%
- viability, T/C (second compound 0.01 µM, first compound 0.00316 µM): 106%
- viability, T/C (second compound 0.01 µM, first compound 0.01 µM): 112%
- viability, T/C (second compound 0.01 µM, first compound 0.0316 µM): 99.2%
- viability, T/C (second compound 0.01 µM, first compound 0.1 µM): 60.1%
- viability, T/C (second compound 0.01 µM, first compound 0.316 µM): 58%
- viability, T/C (second compound 0.01 µM, first compound 1 µM): 18.8%
- viability, T/C (second compound 0.0316 µM, first compound 0.00316 µM): 100%
- viability, T/C (second compound 0.0316 µM, first compound 0.01 µM): 114%
- viability, T/C (second compound 0.0316 µM, first compound 0.0316 µM): 90.9%
- viability, T/C (second compound 0.0316 µM, first compound 0.1 µM): 90%
- viability, T/C (second compound 0.0316 µM, first compound 0.316 µM): 87.9%
- viability, T/C (second compound 0.0316 µM, first compound 1 µM): 19.5%
- viability, T/C (second compound 0.1 µM, first compound 0.00316 µM): 107%
- viability, T/C (second compound 0.1 µM, first compound 0.01 µM): 105%
- viability, T/C (second compound 0.1 µM, first compound 0.0316 µM): 102%
- viability, T/C (second compound 0.1 µM, first compound 0.1 µM): 67.7%
- viability, T/C (second compound 0.1 µM, first compound 0.316 µM): 73.3%
- viability, T/C (second compound 0.1 µM, first compound 1 µM): 18.9%
- viability, T/C (second compound 0.316 µM, first compound 0.00316 µM): 111%
- viability, T/C (second compound 0.316 µM, first compound 0.01 µM): 107%
- viability, T/C (second compound 0.316 µM, first compound 0.0316 µM): 90.4%
- viability, T/C (second compound 0.316 µM, first compound 0.1 µM): 61.8%
- viability, T/C (second compound 0.316 µM, first compound 0.316 µM): 61.3%
- viability, T/C (second compound 0.316 µM, first compound 1 µM): 33.3%
- viability, T/C (second compound 1 µM, first compound 0.00316 µM): 100%
- viability, T/C (second compound 1 µM, first compound 0.01 µM): 111%
- viability, T/C (second compound 1 µM, first compound 0.0316 µM): 101%
- viability, T/C (second compound 1 µM, first compound 0.1 µM): 101%
- viability, T/C (second compound 1 µM, first compound 0.316 µM): 67.8%
- viability, T/C (second compound 1 µM, first compound 1 µM): 31.3%

Structure (SMILES): C=CC(=O)N1CCN(c2nc(=O)n(-c3c(C)ccnc3C(C)C)c3nc(-c4c(O)cccc4F)c(F)cc23)C(C)C1 (centres undefined)
- viability, T/C (compound 0.0316 µM): 97% and 99.6% and 107%
- viability, T/C (compound 0.1 µM): 95.3% and 101% and 91.9%
- viability, T/C (compound 0.316 µM): 102% and 98.2% and 97.2%
- viability, T/C (compound 1 µM): 102% and 100% and 74.5%
- viability, T/C (compound 3.16 µM): 106% and 109% and 52.6%
- viability, T/C (compound 10 µM): 102% and 106% and 35.4%
- IC50 (curve of compound): > 10000 nM and 3750 nM
